Source: patent US9328092B2, “Acrylamide compounds as histamine H3 receptor ligands” (Suven Life Sciences Limited, priority 2012, dated 2016)
Structures can show the parent of a compound that is named as a salt. Blank lines part the entries; values can stand above or below the compound they belong to.

Legend:
[1] = Rodent pharmacokinetic study; format: in vivo; details: rat, whole blood, Wistar rats/Male; for AUC(0-t) / Cmax / Tmax / half-life: blood; for bioavailability: 3 mg/kg Per-Oral vs 1 mg/kg Intravenous
Method: Male Wistar rats (230-280 grams) were used as experimental animals. Three to five animals were housed in each cage. One day prior to dosing day, male wistar rats (225-250 grams) were anesthetized with isoflurane for surgical placement of jugular vein catheter. Animals were kept fasted over night and maintained on a 12 hours light/dark cycle. Three rats were dosed with compounds of formula (I) orally (3 mg/Kg) and intravenously (1 mg/kg) in two separate set of animals (n=3 rats/group). At each time point, blood was collected by jugular vein. Blood was stored frozen at […] until analysis. The concentrations of the compounds of formula (I) in blood were determined using LC-MS/MS method. Schedule time points: Pre dose 0.08 (only for i.v.) 0.25, 0.5, 1, 2, 4, 6, 8, and 24 hours after dosing (n=3). The compounds of formula (I) were quantified in blood by validated LC-MS/MS method using acetonitrile precipitation technique. The compounds of formula (I) were quantified in the calibration range of 1-1000 ng/mL in blood. Study samples were analyzed using calibration samples in the batch and quality control samples spread across the batch. Pharmacokinetic parameters Cmax, Tmax, AUCt, T1/2 and Bioavailability were calculated by non-compartmental model using software Pheonix WinNonlin version 6.0.1.

[2] = molecular target: Human or Rat Histamine H3 Receptor (UniProt Q9Y5N1); assay: Binding assay for human or rat histamine H3 receptor ([3H] R-α-methylhistamine displacement); details: [3H] R-α-methylhistamine 3.0 nM, rat brain frontal cortex or recombinant human receptor in CHO cells (source for table not stated)
Method: Binding and Functional Assays for Human or Rat Histamine H3 Receptor
Compounds can be evaluated according to the following procedures.
• Receptor source: Rat brain frontal cortex or recombinant human cDNA expressed in CHO cells • Radioligand: [^3H] R-α-methylhistamine • Final ligand concentration—[3.0 nM] • Non-specific determinant: R-α-methylhistamine (100 μM) • Reference compound: R-α-methylhistamine • Positive control: R-α-methylhistamine Incubation Conditions:
Increasing concentrations of test compounds or standard were incubated with membrane receptors and radioligand in 5 mM MgCl2 and 50 mM TRIS-HCl (pH 7.4) for 60 minutes at room temperature. The reaction was terminated by rapid vacuum filtration onto the glass fiber filters. Radioactivity trapped onto the filters was determined and compared to the control values in order to ascertain any interactions of the test compound(s) with either cloned human or rat receptor binding site.

[3] = Rodent brain penetration study; format: in vivo, Male Wistar rats; details: 3 mg/kg, Wister rats/Male, Per-oral; for Kp at 1 h: male, Wistar, rat, brain homogenate / whole blood, po, 1 h post dose, read-out: Brain Penetration @ 1 h post dose (Cbrain/Cblood)
Method: Male Wistar rats (230-280 grams) were used as experimental animals. Three animals were housed in each cage. Animals were given water and food ad libitum throughout the experiment and maintained on a 12 hours light/dark cycle. Brain penetration was determined in discrete manner in rats. One day prior to dosing day, male wistar rats (225-250 grams) were acclimatized. After acclimatization, the rats were grouped according to the weight in each group, 3 animals were kept in individual cage and allowed free access to food and water. At each time point (05, 1, and 2 hrs) n=3 animals were used. The compounds of formula (I) were dissolved in water and administered orally at (free base) 3 mg/kg. Blood samples were removed via, cardiac puncture by using light ether anesthesia the animals were sacrificed to collect brain tissue. Brain samples were homogenized and stored frozen at −20° C. until analysis. The concentrations of the compounds of formula (I) in blood and brain were determined using LC-MS/MS method. The compounds of formula (I) were quantified in blood and brain homogenate by validated LC-MS/MS method using acetonitrile precipitation technique. The compounds of formula (I) were quantified in the calibration range of 1-1000 ng/mL in blood and brain homogenate. Study samples were analyzed using calibration samples in the batch and quality control samples spread across the batch. Extents of brain to blood ratios were calculated (Cbrain/Cblood).

Male Wister rats = assay: Object recognition task model; format: in vivo; details: p.o.; for Exploration time mean ± S.E.M, Familiar object / Exploration time mean ± S.E.M, Novel object: choice trial T2
Method: The cognition enhancing properties of compounds of this invention were estimated using a model of animal cognition: the object recognition task model.
Male Wister rats (230-280 grams) were used as experimental animals. Four animals were housed in each cage. Animals were kept on 20% food deprivation before one day and given water ad libitum throughout the experiment and maintained on a 12 hours light/dark cycle. Also the rats were habituated to individual arenas for 1 hour in the absence of any objects.
One group of 12 rats received vehicle (1 mL/Kg) orally and another set of animals received compound of the formula (I) either orally or i.p., before one hour of the familiar (T1) and choice trial (T2).
The experiment was carried out in a 50×50×50 cm open field made up of acrylic. In the familiarization phase, (T1), the rats were placed individually in the open field for 3 minutes, in which two identical objects (plastic bottles, 12.5 cm height×5.5 cm diameter) covered in yellow masking tape alone (a1 and a2) were positioned in two adjacent corners, 10 cm. from the walls. After 24 hours of the (T1) trial for long-term memory test, the same rats were placed in the same arena as they were placed in T1 trial. Choice phase (T2) rats were allowed to explore the open field for 3 minutes in presence of one familiar object (a3) and one novel object (b) (Amber color glass bottle, 12 cm high and 5 cm in diameter). Familiar objects presented similar textures, colors and sizes. During the T1 and T2 trial, explorations of each object (defined as sniffing, licking, chewing or having moving vibrissae whilst directing the nose towards the object at a distance of less than 1 cm) were recorded separately by stopwatch. Sitting on an object was not regarded as exploratory activity, however, it was rarely observed.
T1 is the total time spent exploring the familiar objects (a1+a2).
T2 is the total time spent exploring the familiar object and novel object (a3+b).
The object recognition test was performed as described by Ennaceur, A., Delacour, J., 1988, A new one-trial test for neurobiological studies of memory in rats—Behavioural data, Behav. Brain Res., 31, 47-59.

SMILES: O=C(C=Cc1ccc(OC2CCN(C3CCC3)CC2)cc1)N1CCOCC1.O=C(O)C(O)C(O)C(=O)O [Example 10, 3-[4-(1-Cyclobutylpiperidin-4-yloxy)phenyl]-1-(morpholin-4-yl)prop-2-ene-1-one L(+)-Tartarate salt]
- AUC(0-t) ([1]; 1 mg/kg, Intravenous): 222 ± 33 ng·h/mL
- Cmax ([1]; 1 mg/kg, Intravenous): 285 ± 46 ng/mL
- Tmax ([1]; 1 mg/kg, Intravenous): 4.8 min
- half-life ([1]; 1 mg/kg, Intravenous): 48 ± 3 min
- bioavailability [1]: 58 ± 6%
- AUC(0-t) ([1]; 3 mg/kg, Per-Oral): 387 ± 38 ng·h/mL
- Cmax ([1]; 3 mg/kg, Per-Oral): 290 ± 32 ng/mL
- Tmax ([1]; 3 mg/kg, Per-Oral): 15 min
- half-life ([1]; 3 mg/kg, Per-Oral): 51 ± 8.4 min
- Ki [2]: 3.43 nM
- Kp at 1 h [3]: 1.36

SMILES: O=C(C=Cc1ccc(OC2CCN(C3CCC3)CC2)cc1)N1CCS(=O)(=O)CC1 [Example 3, 3-[4-(1-Cyclobutylpiperidin-4-yloxy)phenyl]-1-(1,1-dioxothiomorpholin-4-yl)prop-2-ene-1-one hydrochloride salt]
- Ki [2]: 1.4 nM

SMILES: O=C(C=Cc1ccc(OC2CCN(C3CCC3)CC2)cc1F)N1CCOCC1.O=C(O)C(O)C(O)C(=O)O [Example 7, 3-[2-Fluoro-4-(1-cyclobutylpiperidin-4-yloxy)phenyl]-1-(morpholin-4-yl)prop-2-ene-1-one L(+)-Tartarate salt]
- AUC(0-t) ([1]; 1 mg/kg, Intravenous): 167 ± 47 ng·h/mL
- Cmax ([1]; 1 mg/kg, Intravenous): 311 ± 110 ng/mL
- Tmax ([1]; 1 mg/kg, Intravenous): 4.8 min
- half-life ([1]; 1 mg/kg, Intravenous): 36 ± 12 min
- bioavailability [1]: 9 ± 5%
- AUC(0-t) ([1]; 3 mg/kg, Per-Oral): 49 ± 29 ng·h/mL
- Cmax ([1]; 3 mg/kg, Per-Oral): 57 ± 36 ng/mL
- Tmax ([1]; 3 mg/kg, Per-Oral): 15 min
- half-life ([1]; 3 mg/kg, Per-Oral): 54 ± 36 min
- Ki [2]: 2.96 nM
- Kp at 1 h [3]: 2.51

SMILES: CC(C)CN1CCC(Oc2ccc(C=CC(=O)N3CCOCC3)cc2)CC1 [Example 18, 3-[4-(1-Isobutylpiperidin-4-yloxy)phenyl]-1-(morpholin-4-yl)prop-2-ene-1-one]
- Ki [2]: 32.4 nM

SMILES: O=C(C=Cc1ccc(OC2CCN(C3CCC3)CC2)nc1)N1CCCCC1 [Example 4, 3-[2-(1-Cyclobutylpiperidin-4-yloxy)pyridin-5-yl]-1-(piperidin-1-yl)prop-2-ene-1-one L(+)-Tartarate salt]
- Ki [2]: 7.82 nM

SMILES: Cc1cc(OC2CCN(C(C)C)CC2)ccc1C=CC(=O)N1CCOCC1 [Example 9, 3-[4-(1-Isopropylpiperidin-4-yloxy)-2-methylphenyl]-1-(morpholin-4-yl)prop-2-ene-1-one L(+)-Tartarate salt]
- Ki [2]: 13.1 nM

SMILES: O=C(C=Cc1ccc(OC2CCN(C3CCC3)CC2)cc1)N1CCOCC1.O=C(O)/C=C/C(=O)O [Example 1, 3-[4-(1-Cyclobutylpiperidin-4-yloxy)phenyl]-1-(morpholin-4-yl)prop-2-ene-1-one fumarate salt]
- AUC(0-t) ([1]; 1 mg/kg, Intravenous): 208 ± 7 ng·h/mL
- Cmax ([1]; 1 mg/kg, Intravenous): 214 ± 25 ng/mL
- Tmax ([1]; 1 mg/kg, Intravenous): 4.8 min
- half-life ([1]; 1 mg/kg, Intravenous): 63 ± 4.2 min
- bioavailability [1]: 29 ± 2%
- AUC(0-t) ([1]; 3 mg/kg, Per-Oral): 176 ± 10 ng·h/mL
- Cmax ([1]; 3 mg/kg, Per-Oral): 106 ± 5 ng/mL
- Tmax ([1]; 3 mg/kg, Per-Oral): 30 min
- half-life ([1]; 3 mg/kg, Per-Oral): 93.6 ± 25.8 min
- Ki ([2]; fumarate salt): 1.32 nM
- Brain Penetration @ 1 h post dose (Cbrain/Cblood) [3]: 1.40
- Inference (Male Wister rats; 1 mg/kg): Active
- Exploration time mean ± S.E.M, Familiar object (Male Wister rats; 1 mg/kg): 5.96 ± 1.03 s
- Exploration time mean ± S.E.M, Novel object (Male Wister rats; 1 mg/kg): 14.86 ± 1.92 s

SMILES: CC(C)N1CCC(Oc2ccc(C=CC(=O)N3CCOCC3)cc2Br)CC1 [Example 19, 3-[3-Bromo-4-(1-isopropylpiperidin-4-yloxy)phenyl]-1-(morpholin-4-yl)prop-2-ene-1-one]
- Ki [2]: 17 nM

SMILES: O=C(C=Cc1ccc(OC2CCN(C3CCC3)CC2)nc1)N1CCOCC1.O=C(O)C(O)C(O)C(=O)O [Example 5, 3-[2-(1-Cyclobutylpiperidin-4-yloxy)pyridin-5-yl]-1-(morpholin-4-yl)prop-2-ene-1-one L(+)-Tartarate salt]
- AUC(0-t) ([1]; 1 mg/kg, Intravenous): 173 ± 13 ng·h/mL
- Cmax ([1]; 1 mg/kg, Intravenous): 220 ± 10 ng/mL
- Tmax ([1]; 1 mg/kg, Intravenous): 4.8 min
- half-life ([1]; 1 mg/kg, Intravenous): 36 ± 12 min
- bioavailability [1]: 35 ± 5%
- AUC(0-t) ([1]; 3 mg/kg, Per-Oral): 184 ± 25 ng·h/mL
- Cmax ([1]; 3 mg/kg, Per-Oral): 128 ± 6 ng/mL
- Tmax ([1]; 3 mg/kg, Per-Oral): 25.2 ± 8.4 min
- half-life ([1]; 3 mg/kg, Per-Oral): 66 ± 18 min
- Ki [2]: 7.9 nM
- Kp at 1 h [3]: 0.92
- Inference (Male Wister rats; 3 mg/kg): Active
- Exploration time mean ± S.E.M, Familiar object (Male Wister rats; 3 mg/kg): 9.64 ± 2.22 s
- Exploration time mean ± S.E.M, Novel object (Male Wister rats; 3 mg/kg): 15.53 ± 2.36 s

SMILES: O=C(C=Cc1ccc(OC2CCN(C3CCC3)CC2)cc1)N1CCCCC1 [Example 2, 3-[4-(1-Cyclobutylpiperidin-4-yloxy)phenyl]-1-(piperidin-1-yl)prop-2-ene-1-one hydrochloride salt]
- Ki [2]: 1.82 nM

SMILES: CC(C)N1CCC(Oc2ccc(C=CC(=O)N3CCOCC3)c(F)c2)CC1 [Example 6, 3-[2-Fluoro-4-(1-isopropylpiperidin-4-yloxy)phenyl]-1-(morpholin-4-yl)prop-2-ene-1-one L(+)-Tartarate salt]
- Ki [2]: 17.5 nM

Other lines, results leading:

- Ki [2]: 77.2 nM
SMILES: COc1cc(C=CC(=O)N2CCOCC2)ccc1OC1CCN(C2CCC2)CC1 [Example 11, 3-[4-(1-Cyclobutylpiperidin-4-yloxy)-3-methoxyphenyl]-1-(morpholin-4-yl)prop-2-ene-1-one L(+)-Tartarate salt]

- Ki [2]: 6.34 nM
SMILES: Cc1cc(OC2CCN(C3CCC3)CC2)ccc1C=CC(=O)N1CCOCC1 [Example 8, 3-[4-(1-Cyclobutylpiperidin-4-yloxy)-2-methylphenyl]-1-(morpholin-4-yl)prop-2-ene-1-one L(+)-Tartarate salt]

- Ki [2]: 52.6 nM
SMILES: O=C(C=Cc1ccc(OC2CCN(CC3CC3)CC2)c(Br)c1)N1CCOCC1 [Example 22, 3-[3-Bromo-4-(1-cyclopropylmethylpiperidin-4-yloxy)phenyl]-1-(morpholin-4-yl)prop-2-ene-1-one]

- Ki [2]: 29.7 nM
SMILES: O=C(C=Cc1ccc(OC2CCN(C3CCC3)CC2)cc1Cl)N1CCOCC1 [Example 25, 3-[2-Chloro-4-(1-cyclobutylpiperidin-4-yloxy)phenyl]-1-(morpholin-4-yl)prop-2-ene-1-one]

- Ki [2]: 5.97 nM
SMILES: O=C(C=Cc1ccc(OC2CCN(C3CCC3)CC2)c(Br)c1)N1CCOCC1 [Example 20, 3-[3-Bromo-4-(1-cyclobutylpiperidin-4-yloxy)phenyl]-1-(morpholin-4-yl)prop-2-ene-1-one]
